Data taken from PubChem BioAssay AID328 (DTP/NCI, 2004).
Values joined by “and” are separate entries in the source; they are usually repeats but may differ in a detail not shown here. Identical values can stand only once. Inconclusive results and toxic doses are left out.

Test system: BDF1 mice, P388 leukemia ip, median survival T/C
Experiment: NCI In Vivo Anticancer Drug Screen. Data for tumor model P388 Leukemia (intraperitoneal) in B6D2F1 (BDF1) mice
Conditions: endpoint: median survival time, higher = longer survival
Summary of the method: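 Read-out is survival of treated animals expressed relative to the vehicle group, as a T/C ratio.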

[1] = dose: 100.0 mg/kg/injection, schedule: Q01DX009 (ip), vehicle: saline with Tween-80
[2] = dose: 200.0 mg/kg/injection, schedule: Q01DX009 (ip), vehicle: saline with Tween-80
[3] = dose: 100.0 mg/kg/injection, schedule: Q04DX003 (ip), vehicle: saline with Tween-80
[4] = dose: 200.0 mg/kg/injection, schedule: Q04DX003 (ip), vehicle: saline with Tween-80
[5] = dose: 400.0 mg/kg/injection, schedule: Q04DX003 (ip), vehicle: saline with Tween-80

Question: For `O=C(O)c1ccc(=O)oc1`, which T/C (dose: 12.5 mg/kg/injection, schedule: Q01DX009 (ip), vehicle: saline with Tween-80) is on record?
Answer: Its T/C is 108 % of control.

Question: And the T/C (dose: 25.0 mg/kg/injection, schedule: Q01DX009 (ip), vehicle: saline with Tween-80)?
Answer: The T/C was 99 % of control and 100 % of control.

Question: And the T/C (dose: 50.0 mg/kg/injection, schedule: Q01DX009 (ip), vehicle: saline with Tween-80)?
Answer: Its T/C is 108 % of control.

Question: What about the T/C [1] of the same compound?
Answer: The T/C was 124 % of control.

Question: What about the T/C [2] of the same compound?
Answer: The T/C was 124 % of control.

Question: What does the source list for `COC(=O)c1cc(C)n(C)c(=O)c1CNS(=O)(=O)c1ccccc1`?
Answer: T/C [3]: 98 % of control; T/C [4]: 100 % of control; T/C [5]: 98 % of control

Question: Which T/C (dose: 50.0 mg/kg/injection, schedule: Q01DX009 (ip), vehicle: Klucel (hydroxypropylcellulose) (HPC)) does the source give for `O=S1(=O)CC(Cl)(Br)C1` here?
Answer: The T/C was 105 % of control.

Question: What about the T/C (dose: 100.0 mg/kg/injection, schedule: Q01DX009 (ip), vehicle: Klucel (hydroxypropylcellulose) (HPC)) of the same compound?
Answer: The T/C was 114 % of control.

Question: And the T/C (dose: 200.0 mg/kg/injection, schedule: Q01DX009 (ip), vehicle: Klucel (hydroxypropylcellulose) (HPC))?
Answer: Its T/C is 123 % of control.

Question: For `O=C(O)c1c(I)c(I)c(I)c(I)c1C(=O)c1ccccc1`, which T/C (dose: 44.0 mg/kg/injection, schedule: Q04DX003 (ip), vehicle: saline) is on record?
Answer: The T/C was 109 % of control.

Question: And the T/C (dose: 67.0 mg/kg/injection, schedule: Q04DX003 (ip), vehicle: saline with Tween-80)?
Answer: Its T/C is 104 % of control.

Question: And the T/C (dose: 67.0 mg/kg/injection, schedule: Q04DX003 (ip), vehicle: saline)?
Answer: The T/C was 104 % of control.

Question: What about the T/C [1] of the same compound?
Answer: The T/C was 111 % of control.

Question: And the T/C [3]?
Answer: The T/C was 104 % of control.

Question: What about the T/C (dose: 100.0 mg/kg/injection, schedule: Q04DX003 (ip), vehicle: saline) of the same compound?
Answer: Its T/C is 118 % of control.

Question: What about the T/C (dose: 150.0 mg/kg/injection, schedule: Q04DX003 (ip), vehicle: saline with Tween-80) of the same compound?
Answer: Its T/C is 109 % of control.

Question: And the T/C (dose: 150.0 mg/kg/injection, schedule: Q04DX003 (ip), vehicle: saline)?
Answer: Its T/C is 113 % of control.

Question: And the T/C [2]?
Answer: Its T/C is 111 % of control.

Question: What about the T/C [4] of the same compound?
Answer: Its T/C is 110 % of control.

Question: What about the T/C [5] of the same compound?
Answer: Its T/C is 120 % of control.

Question: Which T/C (dose: 1.56 mg/kg/injection, schedule: Q01DX005 (ip), vehicle: saline with Tween-80) does the source give for `CC(C)(C)c1ccc2c(cc[n+]3ccccc23)c1` here?
Answer: The T/C was 115 % of control.

Question: What about the T/C (dose: 3.13 mg/kg/injection, schedule: Q01DX005 (ip), vehicle: saline with Tween-80) of the same compound?
Answer: The T/C was 123 % of control.

Question: For `CC(=O)C1CC2C=CCC(C2)C1` (stereo unspecified), which T/C (dose: 50.0 mg/kg/injection, schedule: Q01DX001 (ip), vehicle: saline with Tween-80) is on record?
Answer: The T/C was 95 % of control.

Question: What about the T/C (dose: 100.0 mg/kg/injection, schedule: Q01DX001 (ip), vehicle: saline with Tween-80) of the same compound?
Answer: The T/C was 120 % of control.

Question: What about the T/C (dose: 200.0 mg/kg/injection, schedule: Q01DX001 (ip), vehicle: saline with Tween-80) of the same compound?
Answer: The T/C was 95 % of control.

Question: `COc1c2occc2c(CC(O)C(C)(C)O)c2ccc(=O)oc12` (stereo unspecified) was tested. Which T/C (dose: 43.8 mg/kg/injection, schedule: Q01DX009 (ip), vehicle: Klucel (hydroxypropylcellulose) (HPC)) did it give?
Answer: The T/C was 103 % of control.

Question: And the T/C (dose: 87.5 mg/kg/injection, schedule: Q01DX009 (ip), vehicle: Klucel (hydroxypropylcellulose) (HPC))?
Answer: Its T/C is 92 % of control.

Question: What about the T/C (dose: 175.0 mg/kg/injection, schedule: Q01DX009 (ip), vehicle: Klucel (hydroxypropylcellulose) (HPC)) of the same compound?
Answer: The T/C was 90 % of control.

Question: What does the source list for `Cc1cc(O)n(Cc2ccccc2)c(=O)c1`?
Answer: T/C [3]: 102 % of control; T/C [4]: 87 % of control; T/C [5]: 107 % of control

Question: What does the source list for `c1ccc(OCC2CO2)cc1` (stereo unspecified)?
Answer: T/C [1]: 108 % of control and 118 % of control; T/C [3]: 110 % of control; T/C [2]: 108 % of control and 112 % of control; T/C [4]: 115 % of control; T/C [5]: 110 % of control

Question: Which T/C (dose: 12.5 mg/kg/injection, schedule: Q01DX009 (ip), vehicle: Klucel (hydroxypropylcellulose) (HPC)) does the source give for `O=c1cnn(C2OC(CO)C(O)C2O)c(=O)[nH]1` (stereo unspecified) here?
Answer: Its T/C is 108 % of control and 115 % of control.

Question: And the T/C (dose: 25.0 mg/kg/injection, schedule: Q01DX009 (ip), vehicle: Klucel (hydroxypropylcellulose) (HPC))?
Answer: The T/C was 123 % of control.

Question: And the T/C (dose: 75.0 mg/kg/injection, schedule: Q01DX009 (ip), vehicle: Klucel (hydroxypropylcellulose) (HPC))?
Answer: The T/C was 112 % of control.

Question: And the T/C (dose: 150.0 mg/kg/injection, schedule: Q01DX009 (ip), vehicle: Klucel (hydroxypropylcellulose) (HPC))?
Answer: The T/C was 106 % of control.

Question: What about the T/C (dose: 180.0 mg/kg/injection, schedule: Q01DX009 (ip), vehicle: saline) of the same compound?
Answer: The T/C was 111 % of control.

Question: What about the T/C (dose: 200.0 mg/kg/injection, schedule: Q01DX010 (ip), vehicle: saline) of the same compound?
Answer: The T/C was 116 % of control and 122 % of control.

Question: And the T/C (dose: 268.0 mg/kg/injection, schedule: Q01DX009 (ip), vehicle: saline)?
Answer: The T/C was 111 % of control.

Question: What about the T/C (dose: 300.0 mg/kg/injection, schedule: Q01DX009 (ip), vehicle: Klucel (hydroxypropylcellulose) (HPC)) of the same compound?
Answer: Its T/C is 106 % of control.

Question: What about the T/C (dose: 400.0 mg/kg/injection, schedule: Q01DX009 (ip), vehicle: saline) of the same compound?
Answer: The T/C was 117 % of control.

Question: And the T/C (dose: 400.0 mg/kg/injection, schedule: Q01DX010 (ip), vehicle: saline)?
Answer: Its T/C is 154 % of control.

Question: What about the T/C (dose: 600.0 mg/kg/injection, schedule: Q01DX009 (ip), vehicle: saline) of the same compound?
Answer: The T/C was 109 % of control.

Question: And the T/C (dose: 1200.0 mg/kg/injection, schedule: Q01DX009 (ip), vehicle: Klucel (hydroxypropylcellulose) (HPC))?
Answer: Its T/C is 91 % of control.

Question: And the T/C (dose: 1600.0 mg/kg/injection, schedule: Q01DX010 (ip), vehicle: saline)?
Answer: Its T/C is 100 % of control.
